The record followed here is ChEMBL document CHEMBL3044940, “Activities of essential oils from Asarum heterotropoides var. mandshuricum against five phytopathogens” (Crop Prot, 2010).

In brackets after ≈: the same amount, converted by molar mass. Activity calls are given as the source filed them. No cut-off for these calls is given here.

Holding throughout (assay type): functional, organism-based
The test system of one assay is Fusarium solani. In words: Growth inhibition of Fusarium solani after 48 hr.
The subject of a further assay is Alternaria humicola. The experiment in a line: Growth inhibition of Alternaria humicola after 48 hr.
Assay [1] deals with Colletotrichum gloeosporioides. The experiment in a line: Growth inhibition of Colletotrichum gloeosporioides after 48 hr.
For a further assay, the system named is Rhizoctonia solani. The experiment in a line: Growth inhibition of Rhizoctonia solani after 48 hr.
Assay [2] concerns Phytophthora cactorum. The experiment in a line: Growth inhibition of Phytophthora cactorum after 48 hr.
Assay [3] deals with Phytophthora cactorum. In words: Induction of changes in hyphae ultrastructures in Phytophthora cactorum assessed as endoplasmic reticulum structure changes at 0.052 ug/ml by transmission electron microscopy.
Assay [4] has as its system Phytophthora cactorum. In words: Induction of changes in hyphae ultrastructures in Phytophthora cactorum assessed as mitochondria level changes at 0.052 ug/ml by transmission electron microscopy.
The test system of assay [5] is Phytophthora cactorum. The experiment in a line: Induction of changes in hyphae ultrastructures in Phytophthora cactorum assessed as membranes obscuring at 0.052 ug/ml by transmission electron microscopy.
The test system of assay [6] is Phytophthora cactorum. In words: Induction of changes in hyphae ultrastructures in Phytophthora cactorum assessed as cell wall thickening at 0.052 ug/ml by transmission electron microscopy.
Assay [7] concerns Phytophthora cactorum. In words: Induction of changes in hyphae ultrastructures in Phytophthora cactorum assessed as plasmalemma invagination at 0.052 ug/ml by transmission electron microscopy. The note with it: Plasma.
The subject of assay [8] is Phytophthora cactorum. In words: Induction of changes in hyphae ultrastructures in Phytophthora cactorum at 0.052 ug/ml by transmission electron microscopy.

For `C=CCc1ccc(OC)c(OC)c1` [METHYLEUGENOL], the “growth inhibition (GI)” value in the assay with Fusarium solani was “inactive”. The IC50 in the assay with Alternaria humicola came out at 0.144 µg/mL (≈ 0.808 µM); in assay [1] it was 0.09 µg/mL (≈ 0.505 µM); in the assay with Rhizoctonia solani it was 0.279 µg/mL (≈ 1.57 µM); with Phytophthora cactorum [2] it was 0.052 µg/mL (≈ 0.292 µM). In addition, the result with Phytophthora cactorum [3], in the assay on Phytophthora cactorum [4], in the assay with Phytophthora cactorum [5], in the assay on Phytophthora cactorum [6], in the assay on Phytophthora cactorum [7] and with Phytophthora cactorum [8] was Active.
On to `COCC(=O)N(c1c(C)cccc1C)C(C)C(=O)OC` (configuration not stated) [METALAXYL], for which the IC50 in the assay with Phytophthora cactorum [2] came to 0.013 µg/mL (≈ 0.0465 µM).
